One assay is filed under the species Ovis aries. Put plainly: Selectivity ratio of IC50 for ovine COX-1 to IC50 for ovine COX-2.
Assay [1] concerns the target T1, Prostaglandin G/H synthase 1 (Ovis aries, UniProt P05979).
T1 sequence (P05979 whole entry): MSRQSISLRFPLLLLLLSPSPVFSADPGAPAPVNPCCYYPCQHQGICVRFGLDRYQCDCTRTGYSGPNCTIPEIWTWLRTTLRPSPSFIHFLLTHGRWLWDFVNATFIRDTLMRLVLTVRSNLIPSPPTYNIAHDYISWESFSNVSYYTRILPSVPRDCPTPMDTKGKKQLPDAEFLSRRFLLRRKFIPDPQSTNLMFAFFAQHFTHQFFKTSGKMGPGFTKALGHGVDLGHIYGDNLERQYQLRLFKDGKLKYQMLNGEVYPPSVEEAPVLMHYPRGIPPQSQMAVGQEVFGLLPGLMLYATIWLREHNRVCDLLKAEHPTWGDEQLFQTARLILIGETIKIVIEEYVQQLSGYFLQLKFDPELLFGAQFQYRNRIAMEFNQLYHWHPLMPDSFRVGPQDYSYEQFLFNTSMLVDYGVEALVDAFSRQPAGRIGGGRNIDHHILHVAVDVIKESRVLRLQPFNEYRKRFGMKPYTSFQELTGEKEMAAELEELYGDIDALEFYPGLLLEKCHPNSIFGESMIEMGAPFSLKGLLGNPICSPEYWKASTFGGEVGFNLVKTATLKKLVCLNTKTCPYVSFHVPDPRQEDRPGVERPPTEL
Description: Inhibition of ovine COX-1 assessed as inhibition of transformation of AA to PGH2 by EIA

Assay [2] in a line: Antiplatelet activity in rabbit platelets assessed as inhibition of platelet activating factor-induced platelet aggregation. It is filed as functional, cell-based, Oryctolagus cuniculus.
A short description of assay [3]: Inhibition of potato LOX-5 assessed as inhibition of hydroperoxide production after 5 mins by EIA. Further details: species or system Solanum tuberosum.
A short description of assay [4]: Antiplatelet activity in rabbit platelets assessed as inhibition of adenosin 5'-diphosphate-induced platelet aggregation. The assay is classed as functional, cell-based. As to conditions: Oryctolagus cuniculus.
A short description of assay [5]: Antiplatelet activity in rabbit platelets assessed as inhibition of arachidonic acid-induced platelet aggregation. It is filed as functional, cell-based, Oryctolagus cuniculus.
Setting [6] is: Oryctolagus cuniculus, Platelet.

Some results are limits rather than exact numbers.

Data on 29 molecules can be found in ChEMBL document CHEMBL1156142, “COX, LOX and platelet aggregation inhibitory properties of Lauraceae neolignans” (Bioorg Med Chem Lett, 2009).

Usually IC50 stands for the point on the concentration scale where inhibition reaches its midpoint.

In the case of `O=C(O)/C=C/c1ccc(O)c(O)c1`, the Ratio IC50 in the assay filed under Ovis aries was determined as 3.74.
For the molecule `C=CCC1=C[C@]2(OC)[C@@H](O)[C@@](OC)(C1=O)[C@@H](c1cc(OC)c(OC)c(OC)c1)[C@@H]2C` (stereo in doubt; 8) [NECTAMAZIN B], the IC50 in assay [1] is 72.2 µM; in assay [2] (setting [6]), 1.37 µM; in assay [3] it was 156 µM; in assay [4], more than 999 µM; in assay [5] (setting [6]), 68.7 µM.
For the molecule `C=CCC1=C[C@]2(OC)[C@@H](O)[C@@](OC)(C1=O)[C@@H](c1cc(OC)c(OC)c(OC)c1)[C@@H]2C` (stereo in doubt; 9) [NECTAMAZIN B], the half-maximal inhibitory concentration (IC50) in assay [1] came to 152 µM; in assay [2] (platelet) it was 1.72 µM; in assay [3] it was 42.4 µM; in assay [5] (platelet), 43.4 µM.
For the molecule `C=CCC1=C[C@]2(OC)C(=O)C(C1=O)[C@H](c1cc(OC)c(OC)c(OC)c1)[C@H]2C` [4'-OXO-MACROPHYLLIN B], the IC50 amounted to 356 µM in assay [1]; 7.47 µM in assay [2] (setting [6]); 92.5 µM in assay [3]; 521 µM in assay [4]; 78.9 µM in assay [5] (setting [6]).
Turning to `C=CCC1=C[C@]2(OC)C(=CC1=O)O[C@@H](c1ccc(OC)c(OC)c1)[C@H]2C` [(+)-DENUDATIN B], the IC50 worked out at 88.6 µM in assay [1]; 75.6 µM in assay [2] (setting [6]); 0.199 µM in assay [3]; 148 µM in assay [4]; 58.3 µM in assay [5] (setting [6]). The Ratio IC50 in the assay filed under Ovis aries is 15.6.
In the case of `C/C=C/c1cc(OC)c2c(c1)[C@H](C)[C@@H](c1ccc3c(c1)OCO3)O2` [(-)-LICARIN B], the IC50 in assay [1] amounted to 366 µM; in assay [2] (setting [6]) it was 488 µM; in assay [3] it was 14.3 µM; in assay [4], 54.6 µM; in assay [5] (setting [6]), 290 µM. Besides, in the assay listed under Ovis aries, the Ratio IC50 was found to be 426.
For the molecule `C/C=C/c1cc(OC)c2c(c1)[C@@H](C)[C@H](c1ccc(OC)c(OC)c1)O2` [ACUMINATIN], the IC50 turned out to be 223 µM in assay [1]; 65.3 µM in assay [2] (setting [6]); 7.75 µM in assay [3]; 75.6 µM in assay [4]; 222 µM in assay [5] (setting [6]). For the same molecule, the Ratio IC50 in the assay listed under Ovis aries was determined as 146.
Regarding `CC(=O)Oc1ccccc1C(=O)O` [ASPIRIN], the IC50 in assay [2] (setting [6]) was 10.3 µM; in assay [3], 0.162 µM; in assay [4], 545 µM; in assay [5] (setting [6]) it was 5.33 µM.
On to `Cc1ccc(-c2cc(C(F)(F)F)nn2-c2ccc(S(N)(=O)=O)cc2)cc1` [CELECOXIB], for which the IC50 in assay [3] was determined as 73.4 µM.
Consider `C=CCC1=C[C@]2(OC)C(=O)[C@@](OC)(C1=O)[C@H](c1cc(OC)c3c(c1)OCO3)[C@H]2C` [CINERIN A], for which the IC50 in assay [1] came out at 165 µM; in assay [3], 45.6 µM; in assay [4] it was 88.9 µM; in assay [5] (setting [6]) it was 75.6 µM.
In the case of `C=CCC1=C[C@@]2(OC)[C@H](C)[C@@H](c3cc(OC)c4c(c3)OCO4)[C@H](C1=O)[C@@H]2O` [CINERIN B], the half-maximal inhibitory concentration (IC50) in assay [1] is 32.5 µM; in assay [2] (setting [6]) it was 1.51 µM; in assay [3], 146 µM; in assay [4], more than 999 µM; in assay [5] (setting [6]) it was 42.8 µM.
In the case of `C=CCC1=C[C@]2(OC)[C@H](C)[C@@H](c3cc(OC)c4c(c3)OCO4)[C@](OC)(C1=O)[C@H]2O` [CINERIN C], the IC50 is 28.3 µM in assay [1]; 1.09 µM in assay [2] (setting [6]); 136 µM in assay [3]; more than 999 µM in assay [4]; 85.8 µM in assay [5] (setting [6]).
On to `C=CCC1=C[C@@]2(OC)C(=O)[C@](OC)([C@H](c3cc(OC)c4c(c3)OCO4)[C@H]2C)[C@H]1O` [CINERIN D], for which the IC50 in assay [1] stood at 188 µM; in assay [2] (setting [6]) it was 6.63 µM; in assay [3] it was 8.84 µM; in assay [5] (setting [6]), 25.6 µM.
Regarding `C[C@@H]1C(=O)O[C@H]2[C@H](O)[C@@]34[C@H]5C[C@@H](C(C)(C)C)[C@]36[C@@H](OC(=O)[C@@H]6O)O[C@@]4(C(=O)O5)[C@@]12O` [GINKOLIDE B], the IC50 in assay [2] (setting [6]) is 0.925 µM; in assay [4] it was more than 999 µM; in assay [5] (setting [6]), 75.6 µM.
Take `C=CCC1=C[C@@]2(OC)[C@H](C)[C@@H](c3ccc(OC)c(OC)c3)[C@H](C1=O)[C@@H]2O` [KADSURENIN C]: the IC50 was 38.7 µM in assay [1]; 2.33 µM in assay [2] (setting [6]); 117 µM in assay [3]; more than 999 µM in assay [4]; 54.6 µM in assay [5] (setting [6]).
For `C=CCC1=C[C@@]2(OC)C(=CC1=O)O[C@H](c1ccc(OC)c(OC)c1)[C@H]2C` [KADSURENONE], the IC50 in assay [1] worked out at 25.6 µM; in assay [2] (setting [6]), 0.153 µM; in assay [3], 0.104 µM; in assay [4] it was 38.1 µM; in assay [5] (setting [6]), 5.61 µM. For the same molecule, in the assay filed under Ovis aries, the Ratio IC50 was 12.6.
For `C/C=C/c1cc(OC)c2c(c1)[C@H](C)[C@@H](c1ccc(O)c(OC)c1)O2` [LICARIN A], the IC50 is 312 µM in assay [1]; more than 999 µM in assay [2] (setting [6]); 9.73 µM in assay [3]; 112 µM in assay [4]; 489 µM in assay [5] (setting [6]). In the assay filed under Ovis aries, the Ratio IC50 stood at 35.5.
As to `C/C=C/c1cc(OC)c2c(c1)[C@@H](C)[C@H](c1ccc(O)c(OC)c1)O2` [LICARINE A], the IC50 in assay [1] was 245 µM; in assay [2] (setting [6]) it was more than 999 µM; in assay [3] it was 3.69 µM; in assay [4] it was 165 µM; in assay [5] (setting [6]), 556 µM. Besides, in the assay filed under Ovis aries, the Ratio IC50 worked out at 12.5.
As to `C/C=C/c1cc(OC)c2c(c1)[C@@H](C)[C@H](c1ccc3c(c1)OCO3)O2` [LICARINE B], the IC50 in assay [1] stood at 289 µM; in assay [2] (setting [6]), 565 µM; in assay [3], 5.55 µM; in assay [4], 56.7 µM; in assay [5] (setting [6]) it was 326 µM. In addition, in the assay listed under Ovis aries, the Ratio IC50 turned out to be 157.
Consider `C=CCc1cc2c(cc1O)O[C@H](c1ccc3c(c1)OCO3)[C@H]2C` [LILIFLOL A], for which the IC50 in assay [1] was 179 µM; in assay [2] (setting [6]), 18.4 µM; in assay [3] it was 1.81 µM; in assay [4], 124 µM; in assay [5] (setting [6]) it was 145 µM. Moreover, the Ratio IC50 in the assay listed under Ovis aries turned out to be 10.2.
For `C=CCC1=C[C@]2(OC)C(=O)C([C@@H]1O)[C@H](c1cc(OC)c(OC)c(OC)c1)[C@H]2C` [MACROPHYLLIN B], the IC50 in assay [1] is 216 µM; in assay [2] (setting [6]), 6.79 µM; in assay [3] it was 18.9 µM; in assay [4], 121 µM; in assay [5] (setting [6]), 23.2 µM.
For `C=CCC1=C[C@@]2(OC)C(=CC1=O)O[C@H](c1cc(OC)c(OC)c(OC)c1)[C@H]2C` [MIRANDIN A], the IC50 in assay [1] was 77.9 µM; in assay [2] (setting [6]), 3.28 µM; in assay [3], 0.62 µM; in assay [5] (setting [6]), 38.7 µM.
Take `C=CCC1=C[C@@]2(OC)[C@@H](C)[C@H](c3cc(OC)c(OC)c(OC)c3)[C@](OC)([C@H]1O)[C@H]2O` [NECTAMAZIN C]: the IC50 in assay [1] is 74.6 µM; in assay [2] (setting [6]) it was 3.78 µM; in assay [3], 12.8 µM; in assay [4], more than 999 µM; in assay [5] (setting [6]) it was 21.6 µM.
As for `C=CCc1cc(OC)c2oc(-c3ccc4c(c3)OCO4)cc2c1` [NEOLIGNAN 9-NOR-7,8-DEHYDRO-ISOLICARIN B], the IC50 in assay [1] is 349 µM; in assay [2] (setting [6]), 460 µM; in assay [3] it was 106 µM; in assay [4], more than 999 µM; in assay [5] (setting [6]), 426 µM. For the same molecule, the Ratio IC50 in the assay listed under Ovis aries turned out to be 329.
Consider `COc1cc(C=O)cc2c(C)c(-c3ccc4c(c3)OCO4)oc12` [OCOPHYLLALS A], for which the IC50 in assay [1] is 123 µM; in assay [2] (setting [6]), more than 999 µM; in assay [3], 7.31 µM; in assay [4], 102 µM; in assay [5] (setting [6]), 568 µM. Besides, the Ratio IC50 in the assay listed under Ovis aries was 436.
For the molecule `COc1cc(-c2oc3c(OC)cc(C=O)cc3c2C)cc(OC)c1OC` [OCOPHYLLALS B], the IC50 in assay [1] was found to be 102 µM; in assay [2] (setting [6]), 847 µM; in assay [3] it was 8.02 µM; in assay [4], 98.3 µM; in assay [5] (setting [6]) it was 425 µM. Moreover, the Ratio IC50 in the assay filed under Ovis aries worked out at 412.
Turning to `C=CCC1=C[C@@]2(OC)[C@H](C)[C@@H](c3ccc4c(c3)OCO4)[C@H](C1=O)[C@H]2O` [OCOPHYLOL A], the concentration for half-maximal inhibition (IC50) in assay [1] is 88.6 µM; in assay [2] (setting [6]), 3.08 µM; in assay [3], 256 µM; in assay [4], 636 µM; in assay [5] (setting [6]) it was 45.6 µM.
The corresponding values for `C=CCC1=C[C@@]2(OC)[C@H](C)[C@@H](c3ccc(OC)c(OC)c3)[C@H](C1=O)[C@H]2O` [OCOPHYLOL B] are 94.9 µM, 3.03 µM, 189 µM, 725 µM and 38.8 µM.
On to `C=CCC1=C[C@@]2(OC)[C@H](C)[C@@H](c3cc(OC)c(OC)c(OC)c3)[C@H](C1=O)[C@H]2O` [OCOPHYLOL C], for which the IC50 in assay [1] was 72.1 µM; in assay [2] (setting [6]), 2.34 µM; in assay [3], 176 µM; in assay [4], more than 999 µM; in assay [5] (setting [6]), 48.6 µM.
